Experimental data as given in patent US5883074A, “Potentiators of antibacterial agents” (priority 1995, dated 1999).

Assays:
[1] = test system: MRSA; experiment: Potentiation screening assay: methicillin MIC reduction in MRSA; assay type: cell-based, Staphylococcus aureus; details: 0, 5, and 10 μg/ml test compound
Procedure: After regrowth at 35° C. to an OD600 of 0.2-0.4 (1-2 hrs.), the cells are diluted 1/1000 in MHB. […] The plate is placed in a humidified 35° C. incubator for 5-24 hours, and cell growth or inhibition is read as turbidity (OD600). Two positive and one negative controls for growth are cells grown MHB, cells grown in MHB plus 20 μg/ml methicillin alone (without test compound), and uninoculated MHB respectively.
Compounds which meet the first two criteria for follow-up are evaluated in a standard microdilution assessment of the MIC with methicillin for MRSA. (see Lorian, Antibiotics in Laboratory Medicine, 3rd ed., pp. 72-75 (1991).) In order to be carried further, the MIC of methicillin preferably is reduced in the presence of the potentiator to at most twice the MIC of a susceptible strain for methicillin.
MICs for the compounds were determined in the presence of 0, 5, and 10 μg/ml of each compound. MRSA cells were grown in the presence of 0, 5, and 10 μg/ml test compound and concentrations of methicillin obtained from serial two-fold dilutions starting at 1024 μg/ml to 0.002 μg/ml (This range can be extended or refined as appropriate.) as follows: A fresh inoculum of MRSA cells was grown at 35° C. in Mueller-Hinton Broth (MHB) overnight and then diluted 1/50 in the same medium. After regrowth at 35° C. to an OD600 of 0.2-0.4 (1-2 hrs.), the cells were diluted 1/1000 in MHB. […] The plate was placed in a humidified 35° C. incubator for 24 hours, and cell growth or inhibition was read as turbidity (OD600).

[2] = test system: MRSA; experiment: Specificity: intrinsic antibacterial activity without antibacterial agent; assay type: cell-based, Staphylococcus aureus; details: test compound alone, without methicillin
Procedure: In order to ascertain that the test compound is not primarily responsible for inhibition of growth, MRSA cells are grown in the presence of 5 μg/ml test compound as follows: A fresh inoculum of MRSA cells is grown at 35° C. in Mueller-Hinton Broth (MHB) overnight and then diluted 1/50 in the same medium. After regrowth at 35° C. to an OD600 of 0.2-0.4 (1-2 hrs.), the cells are diluted 1/1000 in MHB. In a microtiter plate, 50 μl of this diluted culture is combined with 50 μl MHB containing 10 μg/ml test compound to give starting growth conditions of 5×10^5 cfu/ml in MHB, with 5 μg/ml test compound. The plate is placed in a humidified 35° C. incubator for 5-24 hours, and cell growth or inhibition is read as turbidity (OD600). To be carried forward to the next step of the potentiator screening assay, the test compound should have little or no intrinsic anti-staphylococcal activity (growth should be at least 75% of the growth of the positive control without methicillin, corrected for background), or that activity should be explicable without indicating the probability of human toxicity.

[3] = test system: Enterococcus faecalis VanB; experiment: Checkerboard assay / dose range study with vancomycin; assay type: cell-based
Excerpt: (§1) FIG. 9a provides the results of checkerboard assays showing the MIC reduction for vancomycin in the presence of a range of concentrations of brazilin against two Enterococcus faecalis strains, one VanA and the other VanB. […] Similarly, FIG. 9b provides the results of checkerboard assays showing the MIC reduction for vancomycin in the presence of a range of concentrations of 6-ethyl-7-[1-oxo-3-(1-pyrrolidino)]propyl-1,2,3,4-tetrahydro-1,1,4,4-tetramethylnaphthalene (EOPPTTN).
(§2) Two of the three compounds (brazilin and 6-ethyl-7-[oxo-3-(1-pyrrolidino)]propyl-1,2,3,4-tetrahydro-1,1,4,4-tetramethylnaphthalene) have been examined for synergy with vancomycin. […] Two examples of reasons for alterations are for further optimization, and for modification for use with other bacterial strains or species.

[4] = test system: Enterococcus faecalis VanA; experiment: as above; assay type: cell-based
Excerpt: as §1, §2

[5] = test system: E. faecalis VanA strain; experiment: Vancomycin potentiation screens VPS-20 and VPS-D-ala; assay type: cell-based, Enterococcus faecalis; details: 10 ug/ml test compound
Procedure: In the VPS-20 protocol, vancomycin is used at 20 ug/ml, test compounds are used at 10 ug/ml (this is not critical, a range could be used as well). The growth medium is Brain Heart Infusion broth however, any of a variety of media which will support growth of the specific bacterial strain can be used. The VPS-D-Ala screen uses 8 ug/ml of vancomycin and 50 mM D-alanine. This amino acid is added to feed the bacteria excess alanine, which allows the bacteria to incorporate the alanine in some cases instead of incorporating the (resistance causing) D-lactate in the pentapeptide termini of the cell wall precursor. The presence of this D-alanine supplement thus makes the assay less stringent.
Inoculate E. faecalis VanA strain in BHI broth (pick a few colonies into 3 ml BHI with 2.56 ug/ml vancomycin and grow O/N at 35° C. in a shaker rotating at 225 rpm.
Dilute the O/N culture 1:50 in BHI with 2.56 ug/ml vancomycin (0.5 ml±24.5 ml BHI) in a 125-ml flask, put back in the 35° C. shaker until the cells grow to early log phase (OD600 about 0.2, takes approximately 2 hrs). Make a 1:800 dilution of the log phase culture with BHI broth. 50 ul of these diluted cells will be used as the inoculum in the assay as described below. Add the inoculum after the other reagents.
Meanwhile, test the inoculum concentration and purity: Make 3 serial 10-fold dilutions of the inoculum in 0.2 ml BHI broth. Plate 100 ul on TSA agar plates (trypticase soy agar), incubate at 35° C. O/N, count the colonies to estimate the CFU/ml in the inoculum (it should be 10^4 -10^5 CFU/ml).
Make vancomycin stock at 50 mg/ml in ddH2 O. Filter sterilize with 0.2 um filter, and keep in the freezer. On the day of the assay, dilute vancomycin to 50 ug/ml (for VPS-20) or 54 ug/ml (for VPS-D-ala) in BHI broth.
Prepare D-alanine (Sigma) at 800 mM in ddH2O. Filter sterilize with 0.2 um filter.
The test compounds are from 0.1 mg/ml plates in 10% DMSO, 90% 50 mM HEPES, pH 7.3. Thaw at room temperature.
1. Take 40 ul 50 ug/ml vancomycin in BHI to each well of the assay plate (Final volume will be 100 ul, making vancomycin concentration 20 ug/ml)
2. For each assay plate, prepare a toxicity control plate; instead of pipetting 40 ul of the vancomycin, use 40 ul of BHI broth in each well of the assay plate.
3. Dilute 800 mM D-alanine to 200 mM in BHI broth, take 25 ul of the 200 mM D-alanine to both the assay plate and the toxic control plate.
4. Take 15 ul of 54 ug/ml vancomycin in BHI to each well of the assay plate (Final volume will be 100 ul, making vancomycin concentration 8 ug/ml)
5. For each assay plate, prepare a toxicity control plate; instead of pipetting 15 ul of the vancomycin, use 15 ul of BHI broth in each well of the assay plate.
6. Take 10 ul/well of the test compounds to the assay plates and the toxicity control plates. Do this in perfect register in the microtiter plates (change tips), and work using sterile technique (Final concentration will be 10 ug/ml test compounds, 1% DMSO). This must be done with separate tips, in perfect register.
7. Add 10 ul of 10% DMSO, 90% 50 mM HEPES, pH 7.3 in columns 1 and 12 in each plates.
8. Inoculate all wells in columns 2 to 11 with 50 ul 1/800 diluted log phase culture (prepared as indicated above). Use 50 ul sterile BHI instead of inoculum for the negative growth controls in well A-D in columns 1 and well E-H in columns 12. Add 50 ul of inoculum to Wells E-H in columns 1 and wells A-D in columns 12 for the positive growth controls.
11. […] Remove mylar lids and check the cell density (A600) in 21-24 hours using a microtiter plate reader. The plates will need to be agitated carefully to resuspend the cells before reading.

| Compound | effect on the MIC for methicillin [1] | intrinsic antimicrobial activity [2] | other results |
| --- | --- | --- | --- |
| C[C@]12CC[C@@H]3c4ccc(O)cc4CC[C@H]3[C@@H]1CC[C@H]2O [α-estradiol] | little or no effect on the MIC for methicillin | – | – |
| 10a, 12a dimethyl 1-8-hydroxy-tetradecahydrochrysene | reduce the MIC for methicillin | not exhibiting intrinsic antimicrobial activity | – |
| COc1ccc2c(c1)CCCC2=O [6-methoxy-1-tetralone] | little or no effect on the MIC for methicillin | – | – |
| C[C@]12CC[C@H](O)C[C@@H]1CC[C@@H]1[C@@H]2CC[C@]2(C)C(=O)CC[C@@H]12 [epiandrosterone] | little or no effect on the MIC for methicillin | – | – |
| COc1cc2c(cc1OC)C(=O)CCC2 [6,7-dimethoxy-1-tetralone] | little or no effect on the MIC for methicillin | – | – |
| COc1ccc2c(c1)[C@]13CCCC[C@@H]1[C@H](C2)N(C)CC3 [dextromethorphan] | little or no effect on the MIC for methicillin | – | – |
| C[C@@]12CCC[C@H]1[C@@H]1CC[C@H]3C[C@@H](O)CC[C@]3(C)[C@H]1CC2 [5-α-androstan-3β-ol] | reduce the MIC for methicillin | not exhibiting intrinsic antimicrobial activity | – |
| C=C1CC[C@@H]2[C@](C)(CO)[C@H](O)CC[C@@]2(C)[C@@H]1C/C=C1/C(=O)OC[C@H]1O [andrographolide] | little or no effect on the MIC for methicillin | – | – |
| C[C@]12CC[C@@H]3c4ccc(O)cc4CC[C@H]3[C@@H]1CC[C@@H]2O [β-estradiol] | little or no effect on the MIC for methicillin | – | – |
| C[C@H]1[C@H](C)CC[C@]2(CO)CC[C@]3(C)C(=CC[C@@H]4[C@@]5(C)CC[C@H](O)C(C)(C)[C@@H]5CC[C@]43C)[C@H]12 [uvaol] | reduce the MIC for methicillin | not exhibiting intrinsic antimicrobial activity | – |
| 4a, 5-epoxy-3-oxo-14H-4,6a,9,9-4mephenanthro (2,3-D)(1,3)dioxole-4-propionic acid | little or no effect on the MIC for methicillin | – | – |
| C=C1CC[C@H](O)C/C1=C/C=C1\CCC[C@]2(C)[C@@H]([C@H](C)/C=C/[C@H](C)C(C)C)CC[C@@H]12 [ergocalciferol] | little or no effect on the MIC for methicillin | – | – |
| COc1ccc2c(c1)CCCC2 [6-methoxy-1,2,3,4-tetrahydronaphthalene] | little or no effect on the MIC for methicillin | – | – |
| C[C@@]12CCC[C@H]1[C@@H]1CC[C@@H]3C[C@@H](O)CC[C@]3(C)[C@H]1CC2 [5β-androstan-3β-ol] | reduce the MIC for methicillin | not exhibiting intrinsic antimicrobial activity | – |
| CCc1cc2c(cc1C(=O)CCN1CCCC1)C(C)(C)CCC2(C)C [EOPPTTN, 6-ethyl-7-[1-oxo-3-(1-pyrrolidino)]propyl-1,2,3,4-tetrahydro-1,1,4,4-tetramethylnaphthalene] | – | – | vancomycin MIC reduction in checkerboard assay ([3]; compound 0-20 μg/ml, VanB): the vancomycin MIC declined significantly; synergy with vancomycin ([3]; dose range study, VanB phenotype): synergy; vancomycin MIC reduction in checkerboard assay ([4]; compound 0-20 μg/ml, VanA): the vancomycin MIC declined significantly; synergy with vancomycin ([4]; dose range study, VanA phenotype): synergy; intrinsic activity against the control cells ([5]; no vancomycin): some intrinsic activity against the control cells; vancomycin potentiation screen result ([5]; VPS-20 and/or VPS-D-ala): positive, but less than N-benzyl thiosalicylamide |
| COC(=O)C1(C)CCCC2(C)c3cc(OC)ccc3CCC12 (stereo not drawn) [methyl o-methyl-podocarpate] | little or no effect on the MIC for methicillin | – | – |
| COc1ccc2c(c1)CC[C@@H]1[C@@H]2CC[C@]2(C)[C@@H](O)CC[C@@H]12 [β-estradiol-3-methyl ether] | reduce the MIC for methicillin | not exhibiting intrinsic antimicrobial activity | – |
| CC1(C)CCCC2(C)C1CCC1(C)OC(=O)CC12 (single isomer, unassigned) [(3aR) -(+) -sclareolide] | little or no effect on the MIC for methicillin | – | – |
| C[C@@]12CCC[C@H]1[C@@H]1CC[C@@H]3C[C@H](O)CC[C@]3(C)[C@H]1CC2 [5β-androstan-3-α-ol] | reduce the MIC for methicillin | not exhibiting intrinsic antimicrobial activity | – |
